Assay results published in patent US20240101531A1, “PYRIDINAMINE DERIVATIVES AND THEIR USE AS POTASSIUM CHANNEL MODULATORS” (Xenon Pharmaceuticals Inc., priority 2022, published 2024).
Where a name gives a salt, the structure may show the parent alone.

What follows are compounds tested against human KV7.2/KV7.3 (Homo sapiens (Human), UniProt O43525+O43526) (assay: Potassium flux assay (IPG-2 AM dye)). Conditions: TREX HEK 293 or HEK 293 cells expressing human KV7.2/KV7.3; arithmetic mean values.
Format: cell-based
Text: This potassium flux assay employs the cell-permeable, potassium-sensitive dye, IPG-2 AM, to quantify potassium ion flux through potassium channels.
In general, TREX HEK 293 or HEK 293 cells were stably transfected with either an inducible or non-inducible expression vector containing the full-length cDNA coding for the desired human KV7.2/KV7.3 or in combination with another full-length cDNA for a second desired human KV7 potassium channel. Potassium channel-expressing cell lines were induced with tetracycline (1 μg/mL), if required, and plated on 384-well poly-D-lysine (PDL)-coated plates in culture media (DMEM, containing 10% FBS and 1% L-glutamine). After overnight incubation, culture media was removed and cells were loaded with 5 μM IPG-2 AM dye for 1 hour in Assay buffer (140 mM NaCl, 20 mM RbCl, 2 mM CaCl2, 1 mM MgCl2, 10 mM HEPES (4-(2-hydroxyethyl)-1-piperazineethanesulfonic acid buffer), 10 mM glucose, adjusted with Tris to pH 7.4). Excess dye was removed, and cells incubated at room temperature for 20 minutes with or without test compound. A Hamamatsu FDSS μCell was used to perform a 1:1 addition of K challenge buffer (150 mM NaCl, 10 mM HEPES, 2 mM CaCl2, 10 mM KCl, 1 mM MgCl2, 10 mM glucose, adjusted with Tris to pH 7.4 for human KV7.2/KV7.3, and simultaneously read plates at excitation wavelength of 530 nm and emission wavelength of 558 nm. Non-potassium channel-mediated potassium influx was determined in the presence of DMSO, and maximal influx was determined in the presence of a known KV7.x channel modulator. For each test compound, a concentration response curve was generated with 16 concentrations points, 2-fold serial dilution starting at 30 μM and an EC50 value was determined.

| SMILES | EC50 [nM] |
| --- | --- |
| CC(C)C(C)(N)COc1ccc2c(Nc3ccc(Cl)nc3)nccc2c1 (centres unmarked) [Example 176, 6-(2-amino-2,3-dimethylbutoxy)-N-(6-chloropyridin-3-yl)isoquinolin-1-amine hydrochloride] | 10000 to 30000 |
| CS(=O)(=Nc1ccc2c(Nc3ccc(Cl)nc3)nccc2c1)C1CC1 (centres unmarked) [Example 268, ((1-((6-chloropyridin-3-yl)amino)isoquinolin-6-yl)imino)(cyclopropyl)(methyl)-λ^6-sulfanone] | < 1000 |
| NC(COc1ccc2c(Nc3ccc(Cl)nc3)nccc2c1)C(F)(F)F (centres unmarked) [Example 226, 6-(2-amino-3,3,3-trifluoropropoxy)-N-(6-chloropyridin-3-yl)isoquinolin-1-amine] | 1000 to 10000 |
| Cc1nnc(COc2ccc3c(Nc4ccc(Cl)nc4)nccc3c2)o1 [Example 63, N-(6-chloropyridin-3-yl)-6-((5-methyl-1,3,4-oxadiazol-2-yl)methoxy)isoquinolin-1-amine] | 1000 to 10000 |
| COc1ncc(Nc2nccc3cc(OCC4(C)COC4)ccc23)cn1 [Example 370, N-(2-methoxypyrimidin-5-yl)-6-((3-methyloxetan-3-yl)methoxy)isoquinolin-1-amine] | < 1000 |
| Clc1ccc(Nc2nccc3cc(OC4CCOCC4)ccc23)cn1 [Example 197, N-(6-chloropyridin-3-yl)-6-((tetrahydro-2H-pyran-4-yl)oxy)isoquinolin-1-amine] | < 1000 |
| OC1CC2(C1)CC(Oc1ccc3c(Nc4ccc(Cl)nc4)nccc3c1)C2 (centres unmarked) [Example 153, 6-((1-((6-chloropyridin-3-yl)amino)isoquinolin-6-yl)oxy)spiro[3.3]heptan-2-ol] | < 1000 |
| FC(F)(F)CNc1cnc(Nc2ccc(Cl)nc2)c2[nH]ccc12 [Example 402, NF-(6-chloropyridin-3-yl)-N^4-(2,2,2-trifluoroethyl)-1H-pyrrolo[2,3-c]pyridine-4,7-diamine] | 1000 to 10000 |
| O[C@H]1CC[C@H](Oc2ccc3c(Nc4ccc(Cl)nc4)nccc3c2)CC1 [Example 350, (1r,4r)-4-((1-((6-chloropyridin-3-yl)amino)isoquinolin-6-yl)oxy)cyclohexan-1-ol] | 1000 to 10000 |
| Clc1ccc(Nc2nccc3cc(OC4CCN(Cc5ccccc5)CC4)ccc23)cn1 [Example 90, 6-((1-benzylpiperidin-4-yl)oxy)-N-(6-chloropyridin-3-yl)isoquinolin-1-amine trifluoroacetate] | 1000 to 10000 |
| Clc1ccc(Nc2nccc3cc(OCCc4ccccn4)ccc23)cn1 [Example 183, N-(6-chloropyridin-3-yl)-6-(2-(pyridin-2-yl)ethoxy)isoquinolin-1-amine] | 1000 to 10000 |
| FC1(COc2ccc3c(Nc4cncc(Cl)c4)nccc3c2)CC1 [Example 48, N-(5-chloropyridin-3-yl)-6-((1-fluorocyclopropyl)methoxy)isoquinolin-1-amine] | 1000 to 10000 |
| CS(=O)(=O)C1(COc2ccc3c(Nc4ccc(Cl)nc4)nccc3c2)CC1 [Example 286, N-(6-chloropyridin-3-yl)-6-((1-(methylsulfonyl)cyclopropyl)methoxy)isoquinolin-1-amine] | 1000 to 10000 |
| COC1(COc2ccc3c(Nc4ccc(Cl)nc4)nccc3c2)CCC1 [Example 288, N-(6-chloropyridin-3-yl)-6-((1-methoxycyclobutyl)methoxy)isoquinolin-1-amine] | < 1000 |
| Clc1ccc(Nc2nccc3cc(-c4cc[nH]n4)ccc23)cn1 [Example 424, N-(6-chloropyridin-3-yl)-6-(1H-pyrazol-3-yl)isoquinolin-1-amine] | 1000 to 10000 |
| C[C@@H](Oc1ccc2c(Nc3ccc(Cl)nc3)nccc2c1)c1cnn(C)c1 [Example 171, (R)—N-(6-chloropyridin-3-yl)-6-(1-(1-methyl-1H-pyrazol-4-yl)ethoxy)isoquinolin-1-amine] | < 1000 |
| Cc1ccc(COc2ccc3c(Nc4ccc(Cl)nc4)nccc3c2)cn1 [Example 194, N-(6-chloropyridin-3-yl)-6-((6-methylpyridin-3-yl)methoxy)isoquinolin-1-amine] | < 1000 |
| NS(=O)(=O)C1(COc2ccc3c(Nc4ccc(Cl)nc4)nccc3c2)CCC1 [Example 294, 1-(((1-((6-chloropyridin-3-yl)amino)isoquinolin-6-yl)oxy)methyl)cyclobutane-1-sulfonamide] | < 1000 |
| CC(Oc1ccc2c(Nc3ccc(Cl)nc3)nccc2c1)C1CC1 (centres unmarked) [Example 29, N-(6-chloropyridin-3-yl)-6-(1-cyclopropylethoxy)isoquinolin-1-amine] | 1000 to 10000 |

| SMILES | EC50 [nM] |
| --- | --- |
| N=[S@@]1(=O)CCC[C@@H](COc2ccc3c(Nc4cnc(Cl)nc4)nccc3c2)C1 (relative stereo) [Example 367, trans-3-(((1-((2-chloropyrimidin-5-yl)amino)isoquinolin-6-yl)oxy)methyl)-1-iminohexahydro-1λ^6-thiopyran 1-oxide] | < 1000 |
| CCC1(COc2ccc3c(Nc4ccc(Cl)nc4)nccc3c2)COC1 [Example 328, N-(6-chloropyridin-3-yl)-6-((3-ethyloxetan-3-yl)methoxy)isoquinolin-1-amine] | < 1000 |
| Cn1cc(COc2cnc3c(Nc4ccc(Cl)nc4)nccc3c2)cn1 [Example 252, N-(6-chloropyridin-3-yl)-3-((1-methyl-1H-pyrazol-4-yl)methoxy)-1,7-naphthyridin-8-amine] | < 1000 |
| CC(=O)N1CCC(COc2ccc3c(Nc4ccc(Cl)nc4)nccc3c2)CC1 [Example 318, 1-(4-(((1-((6-chloropyridin-3-yl)amino)isoquinolin-6-yl)oxy)methyl)piperidin-1-yl)ethan-1-one] | < 1000 |
| Cc1csc2c(Nc3ccc(Cl)nc3)nccc12 [Example 17, N-(6-chloropyridin-3-yl)-3-methylthieno[2,3-c]pyridin-7-amine] | 1000 to 10000 |
| Cc1ncc(Nc2nccc3cc(OCC4(C#N)CC4)ccc23)cn1 [Example 127, 1-(((1-((2-methylpyrimidin-5-yl)amino)isoquinolin-6-yl)oxy)methyl)cyclopropane-1-carbonitrile] | < 1000 |
| Cn1cnc(COc2ccc3c(Nc4ccc(Cl)nc4)nccc3c2)n1 [Example 307, N-(6-chloropyridin-3-yl)-6-((1-methyl-1H-1,2,4-triazol-3-yl)methoxy)isoquinolin-1-amine] | 1000 to 10000 |
| CC1(COc2ccc3c(Nc4ccc(Cl)nc4)nccc3c2)COC1 [Example 210, N-(6-chloropyridin-3-yl)-6-((3-methyloxetan-3-yl)methoxy)isoquinolin-1-amine] | < 1000 |
| O[C@@H]1CCC[C@@H](Oc2ccc3c(Nc4ccc(Cl)nc4)nccc3c2)C1 (relative stereo) [Example 354, trans-3-((1-((6-chloropyridin-3-yl)amino)isoquinolin-6-yl)oxy)cyclohexan-1-ol] | < 1000 |
| COc1nn(C)cc1COc1ccc2c(Nc3ccc(Cl)nc3)nccc2c1 [Example 166, N-(6-chloropyridin-3-yl)-6-((3-methoxy-1-methyl-1H-pyrazol-4-yl)methoxy)isoquinolin-1-amine] | < 1000 |
| Clc1ccc(Nc2nccc3cc(OCc4cnc(Cc5cccnc5)o4)ccc23)cn1 [Example 158, N-(6-chloropyridin-3-yl)-6-((2-(pyridin-3-ylmethyl)oxazol-5-yl)methoxy)isoquinolin-1-amine] | 1000 to 10000 |
| Cc1ncc(Nc2nccc3cc(OCC(F)F)ccc23)cn1 [Example 26, 6-(2,2-difluoroethoxy)-N-(2-methylpyrimidin-5-yl)isoquinolin-1-amine] | 1000 to 10000 |
| Clc1ccc(Nc2nccc3cc(OCc4cn[nH]c4C4CC4)ccc23)cn1 [Example 379, N-(6-chloropyridin-3-yl)-6-((5-cyclopropyl-1H-pyrazol-4-yl)methoxy)isoquinolin-1-amine] | < 1000 |
| COCCNC(=O)c1ccc2c(Nc3ccc(Cl)nc3)nccc2c1 [Example 418] | 10000 to 30000 |
| CC1CN(CCOc2ccc3c(Nc4ccc(Cl)nc4)nccc3c2)CCO1 (centres unmarked) [Example 323, N-(6-chloropyridin-3-yl)-6-(2-(2-methylmorpholino)ethoxy)isoquinolin-1-amine] | 1000 to 10000 |
| COc1ccc(Nc2nccc3cc(OCC4(C)COC4)ccc23)cn1 [Example 67, N-(6-methoxypyridin-3-yl)-6-((3-methyloxetan-3-yl)methoxy)isoquinolin-1-amine] | ≥ 30000 |
| Cc1ncc(Nc2nccc3cc(OCc4ccon4)ccc23)cn1 [Example 222, 6-(isoxazol-3-ylmethoxy)-N-(2-methylpyrimidin-5-yl)isoquinolin-1-amine] | 1000 to 10000 |
| COc1ncc(Nc2nccc3cc(OCC4(C#N)CC4)ccc23)cn1 [Example 373, 1-(((1-((2-methoxypyrimidin-5-yl)amino)isoquinolin-6-yl)oxy)methyl)cyclopropane-1-carbonitrile] | < 1000 |
| O[C@@H]1CC[C@@H](Oc2ccc3c(Nc4ccc(Cl)nc4)nccc3c2)C1 (racemic) [Example 103, rac-(1R,3R)-3-((1-((6-chloropyridin-3-yl)amino)isoquinolin-6-yl)oxy)cyclopentan-1-ol] | < 1000 |
